In patent US6825350B2, “Sulfonamide and sulfamide substituted imidazoquinolines and methods for the treatment of periodontal disease using these and other immune response modifiers” (3M Innovative Properties Company, priority 1999, dated 2004):
Read-outs that look alike come from different tables or passages of the source.

How the values were obtained:
[1] = system: interferon (α); experiment: Cytokine induction in human cells: interferon (α) by ELISA; type: cell-based; details: human PBMCs, 18 to 24 hours incubation, ELISA of culture supernatant, read-out: Lowest Effective Concentration (μM) Interferon
[2] = system: tumor necrosis factor (α); experiment: Cytokine induction in human cells: tumor necrosis factor (α) by ELISA; type: cell-based; details: human PBMCs, 18 to 24 hours incubation, ELISA of culture supernatant, read-out: Lowest Effective Concentration (μM) Tumor Necrosis Factor

SMILES	minimal effective concentration ([1]; Homo sapiens, PBMC) [µM]	minimal effective concentration ([2]; Homo sapiens, PBMC) [µM]	minimal effective concentration [1] [µM]	minimal effective concentration [2] [µM]
COCCc1nc2c(N)nc3ccccc3c2n1CCCCNS(=O)(=O)c1ccc(Cl)cc1 [Example 128]	0.0001	1	–	–
CCOCc1nc2c(N)nc3ccccc3c2n1CCNS(=O)(=O)N(C)C [Example 217]	1	> 10	–	–
Cc1ccc(S(=O)(=O)NCCCCn2cnc3c(N)nc4c(c32)CCCC4)cc1 [Example 64]	3.33	> 30	–	–
COCCc1nc2c(N)nc3ccccc3c2n1CCCCNS(=O)(=O)c1cccc(Br)c1 [Example 184]	0.0001	1	–	–
CCCCc1nc2c(N)nc3ccccc3c2n1CCCCNS(=O)(=O)C[C@]12CC[C@@H](CC1=O)C2(C)C [Example 89]	0.001	1	–	–
Nc1nc2c(c3c1ncn3CCCCNS(=O)(=O)c1cccs1)CCCC2 [Example 57]	3.33	> 30	–	–
CCCCS(=O)(=O)NCCCCn1c(CCOC)nc2c(N)nc3ccccc3c21 [Example 117]	0.0001	1	–	–
CCCCc1nc2c(N)nc3ccccc3c2n1CCNS(=O)(=O)c1ccccc1 [Example 20]	0.12	3.33	–	–
CCCCc1nc2c(N)nc3ccccc3c2n1CCNS(=O)(=O)c1ccc(C(C)(C)C)cc1 [Example 25]	3.33	> 30	–	–
CCCCc1nc2c(N)nc3ccccc3c2n1CCCCNS(C)(=O)=O [Example 6, N^1-[4-(4-Amino-2-butyl-1H-imidazo[4,5-c]quinolin-1-yl)butyl]methanesulfonamide]	–	–	0.00017	1.11
CCCCc1nc2c(N)nc3ccccc3c2n1CCCCNS(=O)(=O)c1cc(Br)ccc1OC [Example 52]	–	10	0.12	–
COCCc1nc2c(N)nc3ccccc3c2n1CCCCNS(=O)(=O)N(C)C [Example 218]	0.0001	1	–	–
COCCc1nc2c(N)nc3ccccc3c2n1CCCCNS(=O)(=O)N1CCCC1 [Example 229]	0.0001	0.1	–	–
Nc1nc2c(c3c1ncn3CCCCNS(=O)(=O)c1cccc3cccnc13)CCCC2 [Example 69]	10	> 30	–	–
COCCc1nc2c(N)nc3ccccc3c2n1CCCCNS(=O)(=O)c1ccc(F)cc1 [Example 121]	0.0001	10	–	–
CCCCc1nc2c(N)nc3c(c2n1CCCCNS(C)(=O)=O)CCCC3 [Example 202]	0.0001	1	–	–
CCCS(=O)(=O)NCCCCn1cnc2c(N)nc3c(c21)CCCC3 [Example 54]	10	> 30	–	–
CCCCc1nc2c(N)nc3ccccc3c2n1CCCCNS(=O)(=O)c1ccc([N+](=O)[O-])cc1 [Example 88]	0.01	1	–	–
CCCCc1nc2c(N)nc3ccccc3c2n1CCCCNS(=O)(=O)C(C)C [Example 38]	0.0015	0.37	–	–

SMILES	minimal effective concentration ([1]; Homo sapiens, PBMC) [µM]	minimal effective concentration ([2]; Homo sapiens, PBMC) [µM]	minimal effective concentration [1] [µM]	minimal effective concentration [2] [µM]
COCCc1nc2c(N)nc3ccccc3c2n1CCCCNS(=O)(=O)c1ccccc1F [Example 120]	0.0001	1	–	–
CCCCc1nc2c(N)nc3ccccc3c2n1CCCCNS(=O)(=O)c1ccc(Cl)cc1Cl [Example 92]	0.1	10	–	–
CCCCCCCCCCCCCCCCS(=O)(=O)NCCCCn1c(CCCC)nc2c(N)nc3ccccc3c21 [Example 75]	> 10	> 10	–	–
CCCCc1nc2c(N)nc3ccccc3c2n1CCNS(=O)(=O)c1ccc(Br)cc1 [Example 21]	1.11	30	–	–
COCCc1nc2c(N)nc3ccccc3c2n1CCCCNS(=O)(=O)c1ccc(Cl)s1 [Example 131]	0.0001	1	–	–
CCCCc1nc2c(N)nc3ccccc3c2n1CCNS(=O)(=O)c1c(C)cc(C)cc1C [Example 26]	10	> 30	–	–
CCCCc1nc2c(N)nc3ccccc3c2n1CCNS(=O)(=O)c1ccc(Cl)c(Cl)c1 [Example 22]	0.37	> 30	–	–
CC(C)S(=O)(=O)NCCCCn1cnc2c(N)nc3c(c21)CCCC3 [Example 55]	3.33	> 30	–	–
CCCCc1nc2c(N)nc3ccccc3c2n1CCCCNS(=O)(=O)c1ccc(-c2ccccc2)cc1 [Example 96]	1	> 10	–	–
CCCCc1nc2c(N)nc3ccccc3c2n1CCNS(=O)(=O)c1cccc2ccccc12 [Example 31]	1.11	> 30	–	–
CCCCc1nc2c(N)nc3ccccc3c2n1CCCCNS(=O)(=O)c1c(C)c(C)c(C)c(C)c1C [Example 107]	1	> 10	–	–
CCCCc1nc2c(N)nc3ccccc3c2n1CCNS(=O)(=O)/C=C/c1ccccc1 [Example 29]	0.37	10	–	–
COCCc1nc2c(N)nc3ccccc3c2n1CCCCNS(=O)(=O)Nc1ccccc1 [Example 224]	0.0001	10	–	–
COc1ccc(S(=O)(=O)NCCCCn2cnc3c(N)nc4c(c32)CCCC4)cc1 [Example 65]	3.33	> 30	–	–
CCCCc1nc2c(N)nc3ccccc3c2n1CCCCNS(=O)(=O)c1cccc(F)c1 [Example 95]	0.001	1	–	–
COCCc1nc2c(N)nc3ccccc3c2n1CCCCNS(=O)(=O)NCc1ccccc1 [Example 231]	0.0001	1	–	–
COCCc1nc2c(N)nc3ccccc3c2n1CCCCNS(=O)(=O)Cc1ccccc1 [Example 113]	0.0001	> 10	–	–
CCCCc1nc2c(N)nc3ccccc3c2n1CCCCNS(=O)(=O)c1c(C(C)C)cc(C(C)C)cc1C(C)C [Example 76]	> 10	> 10	–	–
CCCCc1nc2c(N)nc3ccccc3c2n1CCCCNS(=O)(=O)c1c(F)c(F)c(F)c(F)c1F [Example 90]	0.01	1	–	–

SMILES	minimal effective concentration ([1]; Homo sapiens, PBMC) [µM]	minimal effective concentration ([2]; Homo sapiens, PBMC) [µM]	minimal effective concentration [1] [µM]	minimal effective concentration [2] [µM]
CCCCc1nc2c(N)nc3ccccc3c2n1CCCCNS(=O)(=O)c1ccc(Cl)c(Cl)c1 [Example 48]	0.37	10	–	–
CCS(=O)(=O)NCCCCn1c(CCOC)nc2c(N)nc3c(c21)CCCC3 [Example 207]	0.001	1	–	–
CCCCCCCCS(=O)(=O)NCCn1c(CCCC)nc2c(N)nc3ccccc3c21 [Example 18]	3.33	> 30	–	–
CCCCc1nc2c(N)nc3ccccc3c2n1CCCCNS(=O)(=O)C[C@]12CC[C@H](CC1=O)C2(C)C [Example 73]	0.001	0.1	–	–
CCCCc1nc2c(N)nc3ccccc3c2n1CCCCNS(=O)(=O)c1ccc(Br)s1 [Example 99]	0.1	10	–	–
COCCc1nc2c(N)nc3c(c2n1CCCCNS(=O)(=O)c1ccccc1)CCCC3 [Example 210]	0.0001	1	–	–
CCCCc1nc2c(N)nc3ccccc3c2n1CCNS(=O)(=O)c1ccc2ccccc2c1 [Example 32]	1.11	> 30	–	–
CN(C)c1cccc2c(S(=O)(=O)NCCCCn3cnc4c(N)nc5c(c43)CCCC5)cccc12 [Example 71]	> 30	30	–	–
COCCc1nc2c(N)nc3ccccc3c2n1CCCCNS(=O)(=O)c1ccccc1 [Example 158]	0.0001	1	–	–
CCCCc1nc2c(N)nc3ccccc3c2n1CCCCNS(=O)(=O)c1ccc2c(c1)CN(C(=O)C(F)(F)F)CC2 [Example 102]	0.001	10	–	–
COCCc1nc2c(N)nc3ccccc3c2n1CCCCNS(=O)(=O)NC(C)(C)C [Example 230]	0.0001	1	–	–
COCCc1nc2c(N)nc3ccccc3c2n1CCCCNS(=O)(=O)c1ccc(S(C)(=O)=O)cc1 [Example 161]	0.01	10	–	–
Nc1nc2c(c3c1ncn3CCCCNS(=O)(=O)c1ccc(Cl)c(Cl)c1)CCCC2 [Example 60]	> 30	> 30	–	–
Nc1nc2c(c3c1ncn3CCCCNS(=O)(=O)Cc1ccccc1)CCCC2 [Example 67]	10	> 30	–	–
CCCCS(=O)(=O)NCCCCn1cnc2c(N)nc3ccccc3c21 [Example 13, N^1-[4-(4-Amino-1H-imidazo[4,5-c]quinolin-1-y)butyl]-1-butanesulfonamide]	10	> 30	–	–
COCCc1nc2c(N)nc3ccccc3c2n1CCCCNS(=O)(=O)Cc1ccccc1[N+](=O)[O-] [Example 138]	0.0001	10	–	–
CCCCc1nc2c(N)nc3ccccc3c2n1CCNS(=O)(=O)CCC [Example 17]	1.11	3.33	–	–
CCCCc1nc2c(N)nc3ccccc3c2n1CCCCNS(=O)(=O)c1cc(F)ccc1C [Example 106]	1	1	–	–
